Entries after “also recorded” stand apart in the source; their conditions may differ. Blank lines part the entries; values can stand above or below the compound they belong to. The star is where a group is joined. Myristoyl = CCCCCCCCCCCCCC(=O)*
Key:
[1] = Clinical observation of ICP in IIH patients treated with diuretics; type: in vivo
Na^+K^+ATPase [2] = conditions: literature refs 10, 13-15; cited from earlier work
[3] = IIH patients, cited from earlier work; for visual field grades: no significant difference between groups
[4] = test system: rat choroid plexus explants; test: Intracellular Na+ levels (Sodium Green) in choroid plexus explants; type: cell-based; conditions: artificial CSF+Exendin-4 for 3 hours vs no treatment
Procedure: Intracellular Na^+ levels were observed using Sodium Green (iNa^+) (life technologies). Briefly, rat choroid plexus explants were incubated with iNa^+ for 30 minutes before treatment with artificial CSF (no treatment) or artificial CSF+Exendin-4 for 3 hours. The fluorescence intensity directly correlates with the amount of intracellular Na^+.

GLP-1R [5] = molecular target: T1, GLP-1R (Rattus norvegicus, UniProt P32301); test: GLP-1R localisation by immunofluorescent staining in choroid plexus explants; type: cell-based; conditions: 100 nM
T1 construct: The choroid plexus from the lateral ventricles were dissected and placed in artificial CSF; from tissue; host or cells: rat choroid plexus explants (lateral ventricles)
T1 sequence (P32301 22-463): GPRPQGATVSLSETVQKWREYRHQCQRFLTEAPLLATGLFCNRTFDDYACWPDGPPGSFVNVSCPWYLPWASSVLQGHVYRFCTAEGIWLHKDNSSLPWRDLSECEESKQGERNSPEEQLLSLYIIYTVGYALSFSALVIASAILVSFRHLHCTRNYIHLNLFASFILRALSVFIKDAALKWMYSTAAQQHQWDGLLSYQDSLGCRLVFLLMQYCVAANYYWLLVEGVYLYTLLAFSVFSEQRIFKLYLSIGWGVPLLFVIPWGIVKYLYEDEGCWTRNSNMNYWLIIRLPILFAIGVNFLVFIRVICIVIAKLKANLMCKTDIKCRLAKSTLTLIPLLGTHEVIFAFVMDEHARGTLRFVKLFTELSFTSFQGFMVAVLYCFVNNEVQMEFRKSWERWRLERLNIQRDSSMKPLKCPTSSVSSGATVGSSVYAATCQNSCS
Procedure: (§1) The choroid plexus from the lateral ventricles were dissected and placed in artificial CSF (aCSF; 118 mM NaCl, 22 mM NaHCO3, 1.45 mM K2HPO4, 1 mM MgSO4, 1 mM CaCl2 and 10 mM glucose). To evaluate the effects of Exendin-4 on GLP-1R localisation within the cell, the explants were incubated with aCSF containing 100 nM Exendin-9 for 15 minutes or 100 nM Exendin-4 for 15 and 30 minutes. The explants were then fixed and stained following the protocol described below. To determine the effects of Exendin-4 on GLP-1R mRNA expression and protein levels the explants were incubated with aCSF containing 100 nM Exendin-4 for 3 and 6 hours, immediately frozen in liquid nitrogen and stored at −80° C.
For fluorescence labelling of choroid plexus explants and CPe cells, cells were first fixed in PBS containing 2% PFA and 2% glucose for 20 minutes at room temperature, washed in PBS and then permeabilised with methanol for 6 minutes at room temperature. The cells were stained using the same technique described above except that PBST was substituted with PBS.
Stained cells and sections were viewed under a Zeiss LSM 510 UV-confocal microscope (Carl Zeiss) and multiple Z-stack images were taken.

GLP-1R [6] = molecular target: T1, GLP-1R; test: cAMP levels in choroid plexus explants; type: cell-based; conditions: 3 hours, vs aCSF
Procedure: Histogram of mean±SEM of cAMP levels in choroid plexus explants in the 3 groups. The normal levels of cAMP observed with aCSF were increased after the addition of Exendin-4 (GLP-1R agonist) for 3 hours. Forskolin, an adenylate cyclase activator, acted as a positive control for cAMP levels;

GLP-1R [7] = molecular target: T1, GLP-1R; test: GLP-1R mRNA (qPCR) and protein (western blot) in choroid plexus explants; type: cell-based; conditions: 100 nM
Procedure: as §1
For qPCR studies, hypothalamus, anterior pituitary and choroid plexus were dissected, immediately frozen in liquid nitrogen and stored at −80° C. Primary cultures of CPe cells were grown on 12 well inserts until confluency. Total RNA was extracted using the GenElute mammalian total RNA extraction kit (Sigma-Aldrich) and carried out according to the manufacturer's instructions. RNA was reverse transcribed to complementary DNA (cDNA) using a high capacity reverse transcription kit according to the manufacturer's protocol (Life Technologies). Taqman Gene Expression Assays (Life Technologies) were used to assess the expression of GLP-1R (assay number Rn00562406_m1). The 18S ribosomal subunit was used as an endogenous reference (4319413E) and samples were run in triplicate. The cycle number at which the particular sample crossed that threshold (Ct) was used to determine the levels of gene expression and ΔCt was calculated as the difference between the Ct (gene of interest) and the Ct (endogenous reference).
The hypothalamus, pituitary and choroid plexus were dissected, immediately frozen in liquid nitrogen and stored at −80° C. Tissues were homogenised in ice cold lysis buffer (20 mM Tris-HCl pH 7.4, 150 mM NaCl, 1 mM EDTA, 0.5 mM EGTA, 1% NP-40 containing protease inhibitor) and centrifuged at 13,000 g to remove cell debris. CPe cells were grown on 12 well inserts until confluency. Cell and tissue lysates (3 μg protein) were separated on an 8% SDS-PAGE gel. […] After washing in TBST the membranes were incubated with HRP-conjugated secondary antibody diluted in milk/TBST for 1 hour at room temperature. The bands were detected using ECL reagents (Amersham) and developed onto film.

GLP-1R [8] = molecular target: T1, GLP-1R; test: cAMP assay in primary CPe cells; type: cell-based
Procedure: (§2) Choroid plexus tissue from lateral and fourth ventricles were dissected and incubated with 0.25% trypsin solution for 2.5 hours at 4° C. followed by 30 minutes at 37° C. Trypsin digestion was stopped by the addition of newborn calf serum and the cell suspension was centrifuged at 20 g for 10 minutes. Cells were resuspended in DMEM/F12 supplemented with 10% FBS, 1% penicillin/streptomycin, 4 mM L-glutamine, 200 ng/ml hydrocortisone, 5 ng/ml sodium selenite and 10 ng/ml EGF. 20 μM cytosine arabinoside was used for the first 4 days in culture to limit the growth of fibroblasts (Gath et al., 1997). Initially the cells were seeded onto a laminin coated 6 well plate and allowed to grow for 2 days before being transferred to laminin coated 96 well plates or 12 well inserts (Greiner Bio-One Ltd). On day 4 the media was replaced with DMEM/F12 supplemented with 10% FBS and 1% penicillin/streptomycin and changed every 2-3 days. After reaching confluency, CPe cells were serum deprived for 3 days prior to the beginning of the studies (between days 10-14).
The effect of Exendin-4 on the downstream GLP-1R signalling pathway was assessed by measuring the levels of cAMP in CPe cells using the Amersham cAMP Biotrak Enzyme immunoassay (EIA) System (RPN 225, GE Healthcare Life Sciences). […] The cells were subsequently lysed and cAMP detected according to the manufacturer's instructions.

Na^+K^+ATPase [9] = test: Na+K+ATPase activity assay in CPe cells; type: cell-based, rat
Procedure: as §2
The effect of Exendin-4 on Na^+K^+ATPase activity in the choroid plexus was evaluated by the colorimetric measurement of phosphate released from ATP with the use of a phosphate assay kit (ab65622, Abcam); with Na^+K^+ATPase activity being defined as the portion of phosphate produced that is sensitive to Ouabain. CPe cells were incubated with aCSF for 1 hour at 37° C. before incubation in aCSF containing; 100 nM Exendin-4 (n=7), 5 μM PKI-16-22-amide (n=8), 100 nM Exendin-4+5 μM PKI-16-22-amide (n=8); in the presence and absence of 1 mM Ouabain for 30 minutes at 37° C. The cells were then lysed on ice and spun at 13,000 g to remove cell debris. Phosphate was measured as per the manufacturer's instructions. Briefly the samples were added to the reaction mix and incubated at room temperature for 60 minutes before the plate was read at 690 nm. Na^+K^+ATPase activity was calculated as the difference between the amount of phosphate produced in the presence and absence of Ouabain for each treatment.

[10] = ICP recordings in conscious rats (epidural pressure bolt); type: in vivo, rat; conditions: for change in ICP from baseline: 30 and 60 minutes post treatment
Procedure: This procedure and its validation were recently published as a methodological work and contains all technical and surgical detail (Uldall et al, 2014). In brief, rats were anaesthetised (2.7 ml/kg subcutaneous injection containing 1.25 mg/ml midazolam, 2.5 mg/ml fluanisone and 0.079 mg/ml fentanylcitrate). The rat was placed in a stereotactic frame (David Kopf Instruments) and a 2 cm-midline incision was performed on top of the skull and the bone was exposed by retracting the skin and soft tissue. A dental drill was used to induce 4 burr holes in the skull; one large hole was carefully drilled to expose the dura mater to enable placement of the epidural pressure bolt (C313G-3UP, PlasticsOne), with the cannula cut to be level with the base of the pedestal. The other 3 smaller holes were used to fit anchoring screws to the skull. The epidural pressure bolt and the anchoring screws were placed and aligned with the interior surface of the skull and secured using dental resin-cement (Clearfil SA Cement, RH Dental). The epidural pressure bolt and the transducer (DTX-Plus™, Argon Medical Devices) were then connected by a polyethylene tube filled with sterile water, ensuring the absence of air bubbles.
The pressure signal was visualised and recorded using Perisoft v.2.5.5 (Perimed). Correct ICP signal was confirmed by the transient elevation of ICP after jugular vein compression. When the ICP recording procedure was completed the epidural pressure bolt was closed with a bite proof cap (303DCFTX2, PlasticsOne) and the rat allowed to recover.
In order to perform recordings in conscious animals, rats were sedated with midazolam (2.5 mg/kg subcutaneous injection) and the transducer connected to the epidural pressure bolt. […] The ICP signal was again confirmed by jugular vein compression as described above. […]

Compound: NS(=O)(=O)c1cc(C(=O)O)c(NCc2ccco2)cc1Cl [furosemide]
effects on ICP in IIH patients [1]: clinically beneficial effects on ICP

Compound: C[C@@H]1O[C@@H](O[C@H]2C[C@@H](O)[C@]3(CO)[C@H]4[C@H](O)C[C@]5(C)[C@@H](C6=CC(=O)OC6)CC[C@]5(O)[C@@H]4CC[C@]3(O)C2)[C@H](O)[C@H](O)[C@H]1O [ouabain, Ouabain]
CSF secretion (Na^+K^+ATPase [2]): totally inhibited

Compound: CC(=O)Nc1nnc(S(N)(=O)=O)s1 [Acetazolamide]
visual field grades [3]: improved from baseline

Compound: CC1(C)O[C@@H]2[C@@H](CO[C@@]3(COS(N)(=O)=O)OC(C)(C)O[C@@H]23)O1 [Topiramate]
visual field grades [3]: improved from baseline
therapeutic benefit on IIH versus acetazolamide control cohort [3]: no therapeutic benefit on IIH was noted above the control cohort
weight loss [3]: induce weight loss

cAMP levels in choroid plexus explants (GLP-1R [6]): increased
cAMP levels in choroid plexus explants (GLP-1R [6]; listed as exendin-4): increased levels of cAMP
GLP-1R mRNA level (GLP-1R [7]; 3 hours, vs aCSF): significant increases
GLP-1R protein level (GLP-1R [7]; 3 hours, vs aCSF): significant increases
GLP-1R mRNA level (GLP-1R [7]; 6 hours): returned to basal levels
GLP-1R protein level (GLP-1R [7]; 6 hours): remained high
increase in cAMP compared to baseline (GLP-1R [8]; 100 nM, 30 minutes, 1 mM IBMX): 2 fold
cAMP levels in CPe cells compared to control (in words) (GLP-1R [8]; FIG. 10A): significantly increased
Compound: Exendin-4
intracellular Na+ levels (Sodium Green fluorescence) [4]: higher numbers of intense fluorescent choroid plexus epithelial cells with no treatment
intracellular Na+ levels (Sodium Green fluorescence) ([4]; listed as exendin-4): reduce intracellular sodium
GLP-1R localisation after 15 minutes (GLP-1R [5]): predominantly restricted to the apical surface; also recorded: relocation of the GLP-1R to the apical surface
GLP-1R localisation after 30 minutes (GLP-1R [5]; 30 minutes): translocated back to the cytoplasm; also recorded: internalised
Na+K+-ATPase activity compared to control (in words) (Na^+K^+ATPase [9]; 100 nM, 30 minutes, FIG. 10B): reduced
Na+K+ATPase specific phosphate production (Na^+K^+ATPase [9]; 100 nM, 30 minutes, ouabain-sensitive): 39.3±9.4 % of control
change in ICP from baseline ([10]; 1 μg/kg): lowered the ICP from baseline
change in ICP from baseline ([10]; 3 μg/kg): lowered the ICP from baseline
change in ICP from baseline ([10]; 5 μg/kg): greatest reduction
ICP over a 24 hour period ([10]; 5 μg/kg, 24 hours): remained reduced
time to significant ICP reduction compared to saline ([10]; conscious rats, 20 μg/kg subcutaneous): ≤ 10 min
persistence of ICP reduction during recording ([10]; conscious rats, 20 μg/kg subcutaneous, 60 minutes recording): remained significantly lower for the rest of the recording; also recorded: lasted for the full 60 minutes
ICP reduction from baseline ([10]; conscious rats, 20 μg/kg subcutaneous, within 10 minutes): 60.6±4.9%

Compound: myristoylated protein kinase inhibitor (PKI)-(14-22)-amide (Myristoyl-SGRTGRRNA-NH2; UniProt P61925 14-22, looked up, fragment) [PKA inhibitor]
effect on the Exendin-4 reduction in Na+K+ATPase activity (Na^+K^+ATPase [9]; 5 μM PKA inhibitor + 100 nM Exendin-4): abolish the Exendin-4 reduction

Compound: Exendin-9
GLP-1R localisation after 15 minutes (GLP-1R [5]): predominantly restricted to the apical surface; also recorded: restricted to the apical membrane
